From PMC7955167 (Structure(London, England:1993), 2021)
Substitutions are numbered along the chain they refer to. Names may count otherwise.

Assays:
IRAK2 = biological target: T1, IRAK2 (Homo sapiens, UniProt O43187); test: thermal shift assay dose response with isothermal analysis at […]°C; assay type: binding
T1 construct: pseudokinase domain, residues 192-507
T1 sequence (O43187 192-507): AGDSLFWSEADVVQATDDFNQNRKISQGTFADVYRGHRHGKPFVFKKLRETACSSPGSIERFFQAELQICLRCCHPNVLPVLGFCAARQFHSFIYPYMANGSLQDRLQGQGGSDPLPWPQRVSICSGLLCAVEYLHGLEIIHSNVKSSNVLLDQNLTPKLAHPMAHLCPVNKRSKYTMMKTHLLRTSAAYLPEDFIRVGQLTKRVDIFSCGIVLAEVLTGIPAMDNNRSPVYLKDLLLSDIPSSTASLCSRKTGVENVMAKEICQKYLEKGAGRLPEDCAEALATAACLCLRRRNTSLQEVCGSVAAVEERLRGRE

IRAK3 = biological target: T2, IRAK3 (Homo sapiens, UniProt Q9Y616); test: as above; assay type: binding
T2 construct: pseudokinase domain, residues 145–454
T2 sequence (Q9Y616 145-454): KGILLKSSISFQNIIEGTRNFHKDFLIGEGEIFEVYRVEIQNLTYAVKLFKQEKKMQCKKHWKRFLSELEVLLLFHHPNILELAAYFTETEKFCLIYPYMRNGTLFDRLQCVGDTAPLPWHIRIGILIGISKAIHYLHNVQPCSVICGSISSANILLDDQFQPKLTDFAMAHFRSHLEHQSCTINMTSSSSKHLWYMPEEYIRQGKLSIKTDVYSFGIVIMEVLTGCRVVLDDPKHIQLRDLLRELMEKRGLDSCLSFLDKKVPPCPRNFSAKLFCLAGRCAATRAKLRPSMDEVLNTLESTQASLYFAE

[1] = biological target: the molecule itself; test: crystal structure; IRAK3_(145-454) at 7-10 mg/mL, 0.1 M citric acid pH 5.0, 1.62 M ammonium sulfate, 20°C, hanging drop; 2.9 Å; three molecules in the asymmetric unit
[2] = biological target: the molecule itself; test: SEC; analytical gel filtration, Superdex Increase 3.2/300, 20 mM HEPES pH 7.5, 200 mM NaCl, 10% glycerol, 1 mM DTT; 25 μl loaded at 1-5 mg/ml; fractions on SDS-PAGE; monomer to dimer

Molecule: Nc1ncnc2c1ncn2[C@@H]1O[C@H](COP(=O)(O)OP(=O)(O)OP(=O)(O)O)[C@@H](O)[C@H]1O [ATP]
- Kd (IRAK2): 9.8 ± 3.8 µM
- Kd (IRAK3): ~196 µM

B1: IRAK3 pseudokinase domain (residues 145-454), wild type (domain or fragment, human, UniProt Q9Y616 145-454, looked up)
chain: T2 sequence (Q9Y616 145-454)
notes: Interleukin-1 receptor associated kinase 3 (IRAK3), human, pseudokinase domain, residues 145-454; Construct 6His-TEV-GST-3C-IRAK3 145-454; the 6His-GST tag was cut off with PreScission protease; also called IRAK3_(145-454); IRAK3-PK; source: Sf21 insect cells (baculovirus), purified (Ni-NTA, GSH sepharose, PreScission cleavage, gel filtration); not shown: His6, N-terminal, cleaved; GST, …
- stoichiometry N [1]: 2

B2: IRAK3 pseudokinase domain (residues 145-454) E214L (domain or fragment, human, UniProt Q9Y616 145-454, looked up)
chain: T2 sequence (Q9Y616 145-454) with E70L
notes: IRAK3, human, pseudokinase domain, residues 145-454, with E214L; Construct 6His-TEV-GST-3C-IRAK3 145-454 E214L; PDB 6RUU holds the wild-type parent; also called IRAK3_(145-454) E214L; source: Sf21 insect cells (baculovirus), purified (Ni-NTA, GSH sepharose, PreScission cleavage, gel filtration); not shown: His6, N-terminal, cleaved; GST, N-terminal, cleaved
- stoichiometry N [2]: 2
